PMC5841658, “Anti-cancer characteristics and ototoxicity of platinum(II) amine complexes with only one leaving ligand” (PLoS ONE, 2018)
“And” between values parts separate entries of the source, which are not always exact repeats. Equal entries are not always repeated.

Tests used:
[1] = tested on: 5'-GMP; test: Kinetic 5'-GMP assay (1H NMR, rate of reaction of platinum complex with 5'-GMP); format: biochemical; settings: D2O, pH 7, 25°C
Procedure: The reaction of each platinum compound with 5'-GMP (Acros) was monitored using ^1H NMR spectroscopy to observe the disappearance of the H8 signal of the unreacted 5'-GMP at ≈8 ppm and the appearance of a product signal ≈0.5–1.0 ppm downfield of the unreacted 5'-GMP. The reaction was conducted with excess platinum compound present in each case. A 10 mM solution of 5'-GMP and a 10–20 mM solution of the platinum(II) compound were prepared separately in D2O. The pH (uncorrected for the effects of deuterium) of each solution was adjusted to 7, and the samples were equilibrated to 25°C in a water bath. Aliquots of the two solutions were combined and placed in an NMR tube; typically, the final concentrations of platinum was 5–18 mM and the concentration of 5'-GMP was 1 mM (except for the [Pt(dien)Cl]^+ reaction, where it was 0.5 mM). Samples were maintained at 25°C throughout the NMR experiment. The H8 resonances were integrated and the data was fitted to an equation that was first order in each reactant using DynaFit to determine rate constants. At least two runs were conducted for each platinum compound using fresh samples.

[2] = tested on: zebrafish saccule hair cells; test: Hair cell quantification, saccule; format: in vivo, Danio rerio; settings: 5, 25, 50, 75% regions, 25 mg/kg i.p., 48 hours
Procedure: (§1) Zebrafish (Danio rerio) were purchased from a commercial supplier (Segrest Farms, Gibsonton, FL) and maintained in the animal facility of Western Kentucky University according to a protocol approved by the Institutional Animal Care and Use Committee. All zebrafish used in this study were a mix of male and female adult animals at least 6 months of age and were maintained according to standard methods.
(§2) After injection, fish were returned to holding tanks for either 24 or 48 hours and then subjected to hearing tests followed by hair cell quantification analysis.
Hair cell counts were performed from specific regions of the zebrafish saccule and utricle using established procedures. […] Prior to dissection, heads were rinsed three times for 10 minutes each at room temperature in phosphate buffer (pH 7.4, LabChem, Pittsburgh, PA) and the inner ear epithelia (saccule and utricle) were then carefully dissected out and trimmed. […] Tissue samples were then placed on glass slides and nuclei were labelled with Prolong Gold antifade reagent (4’,6-diamidino-2-phenylindole [DAPI], Life Technologies, Carlsbad, CA) and a cover-slip was placed over the samples for microscopy.
Saccule and utricle samples were viewed through the FITC filter of a Zeiss Axioplan2 epifluorescence microscope (Carl Zeiss, Jena, Germany) at 20X magnification and were then photographed using an AxioCam MRm camera. Cell counts were made from four regions of the saccule (5%, 25%, 50%, 75%) along the rostral-caudal length of the organ by placing a 50 μm x 50 μm box at each location and using the microscope cell counter feature. In the utricular samples, cell counts were made from three equidistant 50 μm x 50 μm boxes in both the extrastriolar and striolar regions.
(§3) GraphPad Prism v6 (La Jolla, CA) was used for all statistical analysis. Nuclear fraction platinum uptake as a total percent of combined nuclear and cytosolic uptake was analyzed using a one-way ANOVA (Brown-Forsyth test; p ≤ 0.05). IC50 values were calculated in Prism using the sigmoidal, 4PL, x is log(concentration) analysis feature or were calculated from Prism derived values using the equation y = mx + b. MTT assay standard deviation values were calculated using ED50plus v1.0 online software. AEP threshold data were analyzed by two-way ANOVA (Dunnett’s multiple comparisons test; p ≤ 0.05) and hair cell quantification data by two-way ANOVA (Tukey’s multiple comparisons test; p ≤ 0.05). AEP temporary threshold shifts (TTS) were calculated by subtracting the mean vehicle threshold for each frequency from each treatment threshold. TTS data were averaged across frequencies for each treatment and were analyzed by one-way ANOVA (Tukey’s multiple comparisons test; p ≤ 0.05).

[3] = tested on: zebrafish hearing thresholds; test: Auditory evoked potential (AEP) testing in zebrafish inner ear model; format: in vivo, Danio rerio; settings: 25 mg/kg i.p.; for AEP hearing threshold, significance of pairwise comparison against cisplatin / AEP hearing threshold, significance of pairwise comparison against vehicle: 48 h
Procedure: as §1, §2
Auditory evoked potential (AEP) testing was performed on individual fish according to standard protocols. […] After harness placement was complete, three 27 gauge stainless steel electrodes (Rochester Electro-Medical, Inc., Lutz, FL) were inserted approximately 2 mm subdermally to record AEPs. A reference electrode was inserted into the medial dorsal surface of the head, a recording electrode directly over the brainstem and a ground electrode in the tail musculature. Sound stimuli (tone pips) were presented to each fish at 8 frequencies (100, 250, 400, 600, 800, 1000, 1500 and 3000 Hz) and AEP waveforms were collected using a TDT System III physiology apparatus (Tucker-Davis Technologies Inc., Alachua, FL) running SigGen and BioSig software. Auditory stimuli were passed through a P1000 power amplifier (Hafler, Port Coquitlam, BC) and presented with a University Sound UW-30 underwater speaker (Electro-Voice, Fairport, NY). Sound pressure levels were confirmed using a Type 10CT hydrophone (G.R.A.S., Holte, Denmark) placed adjacent to the mesh harness. Auditory thresholds were determined in 5 dB increments by visual inspection of AEP waveforms.
as §3

CC[N+]1(CC)CC[NH+]2CC[NH2+][Pt-2]21[Cl] (centres unmarked) [[Pt(Et2dien)Cl]^+, Pt(N,N-diethyldiethylenetriamine)Cl]
Relative rate (rate constant divided by the rate constant for [Pt(dien)Cl]^+) [1]: 0.00012
Rate constant for the reaction of 5'-GMP with the platinum(II) complex ([1]; excess platinum, fitted first order in each reactant): 4.64 ± 0.08 x 10^−5 M^-1s^-1 and 4.64 (+/- 0.08) x 10^−5 M^-1s^-1
effect on hair cell density in four regions of the saccule compared to vehicle [2]: no significant reduction in hair cell bundles
mean (± S.E.) temporary threshold shift (TTS), averaged across frequencies ([3]; 48 hours, vehicle threshold subtracted): 11.1 ± 2.5 dB
AEP hearing threshold, significance of pairwise comparison against cisplatin ([3]; 100 Hz): ns (ns, p > 0.05)
AEP hearing threshold, significance of pairwise comparison against vehicle ([3]; 100 Hz): *** (*** p ≤ 0.001)
AEP hearing threshold, significance of pairwise comparison against cisplatin ([3]; 250 Hz): ns (ns, p > 0.05)
AEP hearing threshold, significance of pairwise comparison against vehicle ([3]; 250 Hz): ns (ns, p > 0.05)
AEP hearing threshold, significance of pairwise comparison against cisplatin ([3]; 400 Hz): ns (ns, p > 0.05)
AEP hearing threshold, significance of pairwise comparison against vehicle ([3]; 400 Hz): **** (**** p ≤ 0.0001)
AEP hearing threshold, significance of pairwise comparison against cisplatin ([3]; 600 Hz): ns (ns, p > 0.05)
AEP hearing threshold, significance of pairwise comparison against vehicle ([3]; 600 Hz): **** (**** p ≤ 0.0001)
AEP hearing threshold, significance of pairwise comparison against cisplatin ([3]; 800 Hz): * (* p ≤ 0.05)
AEP hearing threshold, significance of pairwise comparison against vehicle ([3]; 800 Hz): **** (**** p ≤ 0.0001)
AEP hearing threshold, significance of pairwise comparison against cisplatin ([3]; 1000 Hz): ns (ns, p > 0.05)
AEP hearing threshold, significance of pairwise comparison against vehicle ([3]; 1000 Hz): **** (**** p ≤ 0.0001)
AEP hearing threshold, significance of pairwise comparison against cisplatin ([3]; 1500 Hz): ns (ns, p > 0.05)
AEP hearing threshold, significance of pairwise comparison against vehicle ([3]; 1500 Hz): ns (ns, p > 0.05)
AEP hearing threshold, significance of pairwise comparison against cisplatin ([3]; 3000 Hz): ns (ns, p > 0.05)
AEP hearing threshold, significance of pairwise comparison against vehicle ([3]; 3000 Hz): ** (** p ≤ 0.01)
